# According to publication PMC6222357, “Liquid Chromatography-Tandem Mass Spectrometry Simultaneous Determination and Pharmacokinetic Study of Fourteen Alkaloid Components in Dog Plasma after Oral Administration of Corydalis bungeana Turcz Extract” (Molecules : A Journal of Synthetic Chemistry and Natural …, 2018):
# Assays:
# [1] = Room temperature stability of stock solution; type: physicochemical; settings: 25 °C for 24 h, n = 6
# Description: (§1) The stability of the fourteen analytes in beagle dogs investigated by analyzing QC samples of each analyte at three QC levels (LQC, MQC and HQC) and each level contained six replicates. The short-term stability was assessed during storage for 4 h at ambient temperature. The long-term stability was determined after the QC samples had been stored for 2 weeks at −80 °C. The freeze-thaw stability was determined after three freeze at −80 °C and thaw cycles. and post-preparative stability was during storage for 12 h after sample preparation at 4 °C. The room temperature stability for stock solution was determined after storing the sample at 25 °C for 24 h. A series of concentrations of stability testing QC samples was gained by the calibration curve which was established from freshly prepared standard samples.
# [2] = Pharmacokinetic study in beagle dogs after oral administration of C. bungeana extract (UHPLC-MS/MS of plasma); settings: for AUC(0-inf) / AUC(0-t) / Cmax / Tmax / half-life: male, beagle, dog, plasma, po, 0.12 g/kg; for Shape of plasma concentration-time profile / Time of first peak of plasma concentration-time profile / Time of second peak of plasma concentration-time profile: beagle dog plasma; for Shape of plasma concentration-time profile: oral C. bungeana extract 0.12 g/kg; for Time of first peak of plasma concentration-time profile / Time of second peak of plasma concentration-time profile: oral C. bungeana extract, post-dose
# Description: The developed UHPLC-MS/MS method was employed to determine the pharmacokinetics of the fourteen components in C. bungeana after a single oral administration of 0.12 g/kg (equivalent to 1180.8 µg/kg A, 100.8 µg/kg B, 172.8 µg/kg C, 194.4 µg/kg D, 147.6 µg/kg E, 291.6 µg/kg F, 7.2 µg/kg G, 64.8 µg/kg H, 10.8 µg/kg I, 435.6 µg/kg J, 7.2 µg/kg K, 2851.2 µg/kg L, 694.8 µg/kg M, 928.8µg/kg N) to six beagle dogs. […] According to the Meeh-Rubn method, we established a final oral dosage of 0.12 g/kg in dogs. The plasma concentrations of the fourteen components at each time point were detected and the data gained from six beagle dogs were averaged.
# Before the experiment, the beagle dogs were fasted for 12 h but given water during the research period. Blood (300 µL) was collected from the forelimb vein plexus at a few specific time points (0.083, 0.25, 0.5, 0.75 and 1, 2, 3, 4, 6, 8, 12, 24 h) after the oral administration of the extract of C. bungeana (0.12 g/kg). After centrifugation at 13,000 rpm for 10 min, the plasma was collected immediately and maintained at −80 °C until sample analysis.
# Using a liquid-liquid extraction method, 100 µL of methanol and 50 µL of IS (bifendate) were added to a beagle dog plasma sample (100 µL) followed by vortex for 30 s. Then 3 mL of aether was accurately added and the mixture was vortexed for 60 s. After this step, the samples were put into a centrifuge (XiangYi Technologies, Changsha, Hunan, China). The organic supernatant was pipetted into clean glass tubes individually after centrifugation 3800 rpm for 6 min. The upper organic layer was removed and evaporated to dryness at 40 °C under a stream of nitrogen. The residue was then redissolved with 100 µL of mobile phase (28% acetonitrile), vortexed for 30 s and filtered by a 0.22 µm membrane. A 10 µL aliquot of the solution was injected into the UHPLC-MS/MS system for analysis.
# Concentrations of fourteen alkaloids in beagle dog blood were calculated employing the Excel program (Microsoft Corp., Redmond, WA, USA). Pharmacokinetic parameters were calculated using non-compartmental methods. The elimination rate constant (Ke) was calculated employing the linear regression of the terminal points in a semi-log plot of the plasma concentration against time. The elimination half-life (t1/2) was calculated using the formula. t1/2 = 0.693/Ke(1)
# The area under the blood concentration versus time curve up to the last quantifiable time point (AUC0→t) was calculated by the linear trapezoidal rule. The area under the plasma concentration –time curve to time infinity (AUC0→∞) was calculated as follows: AUC0→∞ = AUC0→t + Ct/Ke(2)
# The maximum observed blood concentration (Cmax) and the time to reach maximum observed blood concentration (Tmax) were obtained directly from the concentration-time curve.
# [3] = Stability of the analytes in beagle plasma QC samples under different storage conditions; type: physicochemical, beagle dog; settings: n = 6; for Stability (% RE) Long-Term: 2 weeks at −80 °C; for Stability (% RE) Short-Term: 4 h at ambient temperature; for Stability (% RE) Freeze-Thaw: three freeze (−80 °C)-thaw cycles; for Stability (% RE) Post-Preparative: 12 h after sample preparation at 4 °C
# Description: As illustrated in Table 4. The stability of QC samples at three evaluated concentrations contained low, medium and high under different stored conditions was assessed on the basis of peak areas in comparison with freshly prepared QC sample.
# as §1
SMILES,Stability (% RE) Room Temperature for Stock-Solution ([1]; high QC level),Stability (% RE) Room Temperature for Stock-Solution ([1]; low QC level),Stability (% RE) Room Temperature for Stock-Solution ([1]; medium QC level),AUC(0-inf) [2],AUC(0-t) [2],Cmax [2],Tmax [2],half-life [2],Stability (% RE) Long-Term ([3]; high QC in beagle plasma),Stability (% RE) Short-Term ([3]; high QC in beagle plasma),Stability (% RE) Freeze-Thaw ([3]; high QC in beagle plasma),Stability (% RE) Post-Preparative ([3]; high QC),Stability (% RE) Long-Term ([3]; low QC in beagle plasma),Stability (% RE) Short-Term ([3]; low QC in beagle plasma),Stability (% RE) Freeze-Thaw ([3]; low QC in beagle plasma),Stability (% RE) Post-Preparative ([3]; low QC),Stability (% RE) Long-Term ([3]; medium QC in beagle plasma),Stability (% RE) Short-Term ([3]; medium QC in beagle plasma),Stability (% RE) Freeze-Thaw ([3]; medium QC in beagle plasma),Stability (% RE) Post-Preparative ([3]; medium QC),also measured
CN1C(=O)c2c(ccc3c2OCO3)C2(C)C(O)Cc3cc4c(cc3C12)OCO4 (centres unmarked) [8-oxocorynoline],2.30 % RE,−4.08 % RE,3.77 % RE,284 ± 62.4 ng·h/mL,260 ± 64.2 ng·h/mL,94.5 ± 22.8 ng/mL,0.92 ± 0.13 h,6.98 ± 1.76 h,3.13 % RE,−2.89 % RE,−3.58 % RE,10.60 % RE,3.08 % RE,1.62 % RE,1.18 % RE,3.71 % RE,5.35 % RE,−3.92 % RE,9.69 % RE,10.01 % RE,–
"CC(=O)O[C@H]1Cc2cc3c(cc2[C@H]2N(C)Cc4c(ccc5c4OCO5)[C@@]12C)OCO3 [Acetylcorynoline, acetylcorynoline]",3.69 % RE,−1.83 % RE,2.57 % RE,244 ± 26.2 ng·h/mL,230 ± 18.6 ng·h/mL,107 ± 4.63 ng/mL,0.58 ± 0.13 h,5.52 ± 0.93 h,7.32 % RE,−4.81 % RE,−4.20 % RE,2.05 % RE,8.62 % RE,6.47 % RE,5.17 % RE,12.65 % RE,7.56 % RE,6.74 % RE,−3.75 % RE,−3.44 % RE,–
"COc1ccc2cc3[n+](cc2c1OC)CCc1cc2c(cc1-3)OCO2 [Berberine, berberine]",−3.26 % RE,2.22 % RE,4.08 % RE,3770 ± 139 ng·h/mL,3690 ± 141 ng·h/mL,1370 ± 313 ng/mL,0.92 ± 0.13 h,2.49 ± 0.14 h,7.00 % RE,11.96 % RE,7.71 % RE,10.36 % RE,7.75 % RE,9.61 % RE,12.57 % RE,11.84 % RE,7.72 % RE,7.42 % RE,11.60 % RE,9.39 % RE,Shape of plasma concentration-time profile [2]: conspicuous bimodal phenomenon; Time of first peak of plasma concentration-time profile [2]: 0.5 to 1 h; Time of second peak of plasma concentration-time profile [2]: 4 to 8 h
"COc1ccc2cc3[n+](cc2c1O)CCc1cc2c(cc1-3)OCO2 [Berberrubine, berberrubine]",3.65 % RE,−2.05 % RE,1.25 % RE,1200 ± 86.3 ng·h/mL,1160 ± 94.2 ng·h/mL,450 ± 61.6 ng/mL,0.96 ± 0.1 h,4.88 ± 1.72 h,11.01 % RE,10.78 % RE,10.06 % RE,5.08 % RE,11.85 % RE,11.76 % RE,12.88 % RE,5.99 % RE,3.75 % RE,5.82 % RE,5.15 % RE,7.97 % RE,–
"COc1cc2c(cc1O)-c1cc3ccc(OC)c(OC)c3c[n+]1CC2 [Columbamine, columbamine]",2.50 % RE,4.02 % RE,1.62 % RE,7030 ± 290 ng·h/mL,6830 ± 170 ng·h/mL,2130 ± 196 ng/mL,0.92 ± 0.13 h,2.87 ± 0.42 h,10.24 % RE,9.67 % RE,5.60 % RE,12.44 % RE,9.66 % RE,8.47 % RE,11.50 % RE,8.80 % RE,11.77 % RE,4.02 % RE,12.73 % RE,5.50 % RE,Shape of plasma concentration-time profile [2]: conspicuous bimodal phenomenon; Time of first peak of plasma concentration-time profile [2]: 0.5 to 1 h; Time of second peak of plasma concentration-time profile [2]: 4 to 8 h
"CN1Cc2c(ccc3c2OCO3)[C@@]2(C)[C@@H](O)Cc3cc4c(cc3[C@@H]12)OCO4 [Corynoline, corynoline]",–,–,–,755 ± 58.9 ng·h/mL,734 ± 57.5 ng·h/mL,224 ± 15.3 ng/mL,0.96 ± 0.1 h,4.25 ± 0.81 h,9.74 % RE,6.81 % RE,7.95 % RE,5.40 % RE,13.95 % RE,−2.63 % RE,6.11 % RE,7.14 % RE,6.81 % RE,9.25 % RE,6.78 % RE,−2.98 % RE,Shape of plasma concentration-time profile [2]: conspicuous bimodal phenomenon; Time of first peak of plasma concentration-time profile [2]: 0.5 to 1 h; Time of second peak of plasma concentration-time profile [2]: 4 to 8 h
"COc1cc2c(cc1O)CC[n+]1cc3c(OC)c(OC)ccc3cc1-2 [Jateorhizine, jateorhizine]",1.32 % RE,1.16 % RE,−3.58 % RE,163 ± 11 ng·h/mL,151 ± 6.42 ng·h/mL,74.2 ± 8.71 ng/mL,–,6.29 ± 1.09 h,8.26 % RE,6.64 % RE,6.24 % RE,8.41 % RE,12.90 % RE,7.31 % RE,10.65 % RE,6.63 % RE,10.30 % RE,3.05 % RE,8.68 % RE,8.51 % RE,Shape of plasma concentration-time profile [2]: conspicuous bimodal phenomenon; Time of first peak of plasma concentration-time profile [2]: 0.5 to 1 h; Time of second peak of plasma concentration-time profile [2]: 4 to 8 h
"COc1cc2c(cc1OC)-c1cc3ccc(OC)c(OC)c3c[n+]1CC2 [Palmatine, palmatine]",–,–,–,9580 ± 596 ng·h/mL,8040 ± 459 ng·h/mL,1900 ± 84.9 ng/mL,0.96 ± 0.1 h,8.56 ± 1.29 h,11.04 % RE,6.73 % RE,8.37 % RE,−7.08 % RE,7.79 % RE,9.42 % RE,10.26 % RE,6.92 % RE,10.77 % RE,−6.30 % RE,8.08 % RE,9.22 % RE,Shape of plasma concentration-time profile [2]: conspicuous bimodal phenomenon; Time of first peak of plasma concentration-time profile [2]: 0.5 to 1 h; Time of second peak of plasma concentration-time profile [2]: 4 to 8 h
"COc1cc2c(cc1OC)[C@@H]1Cc3ccc(OC)c(OC)c3CN1CC2 [Terahydropalmatine, tetrahydropalmatine]",1.28 % RE,2.97 % RE,4.65 % RE,622 ± 52.5 ng·h/mL,585 ± 59.9 ng·h/mL,205 ± 22.4 ng/mL,0.92 ± 0.13 h,5.58 ± 1.46 h,10.23 % RE,5.15 % RE,10.09 % RE,8.76 % RE,−5.67 % RE,9.24 % RE,11.34 % RE,10.82 % RE,11.88 % RE,3.11 % RE,12.23 % RE,8.29 % RE,–
